Patent publication US10434199B2, “Picolinate cross-bridged cyclams, chelates with metallic cations and use thereof” (UNIVERSITÉ DE BRETAGNE OCCIDENTALE, priority 2013, dated 2019)

Columns and labels:
Type in all cases: physicochemical
[1] = Copper(II) complex formation kinetics (UV-vis, buffered aqueous solutions); settings: for time to completion (>99%) of copper(II) complex formation: 25° C.
Protocol: Complex Formation. The formation of the copper(II) complex of Hcb-te1pa was studied in buffered aqueous solutions at 25° C. The increasing intensity of the complex d-d transition band in the visible range (600 nm) was followed at pH=5.0 (0.2 M potassium acetate buffer) and pH=7.4 (0.2 M HEPES buffer), with [Cu^2+]=[Hcb-te1pa]=0.8 mM. Additionally, complex formation was also studied at pH=3.0 (0.2 M (K,H)Cl) under pseudo-first order conditions, by following the increasing charge transfer band in the UV range (at 310 nm) at [Cu^2+]=10×[Hcb-te1pa]=2 mM.
The copper(II) complex formation with Hcb-te1pa was spectroscopically monitored in different buffered solutions from acidic to neutral pH. […] The reaction becomes progressively slower because of the increase of the acidity of the reaction media, enabling a kinetic study under pseudo-first order conditions using conventional UV-vis spectroscopic methods. In this work such kinetic study was performed at pH=3, which is at the lower limit of the pH range in which the copper(II) complexation is approximately complete under equilibrium in equimolar metal-to-ligand conditions.

[2] = Cyclic voltammetry of the copper(II) complexes; settings: overview table
Protocol: Cyclic voltammograms were measured using Autolab equipment at room temperature. All measurements were made using a three-electrode system: a glassy-carbon electrode as a working electrode, a platinum wire as a counter-electrode, and a saturated calomel reference electrode. All electrochemical experiments were performed in ca. 1 mM aqueous solutions of preformed complex under a N2 atmosphere containing 0.1 M NaClO4 as the supporting electrolyte. From the initial potential of the analysis (0 V), the voltage was ramped to −1.3 V, then to 0.2 V, and back to 0 V at a scan rate of 100 mV/s. All potentials are expressed relative to the saturated calomel electrode (SCE) except otherwise noted.
One of the explanations for the dissociation of copper(II) complexes of macrocyclic ligands in biological media is the metal reduction to copper(I) followed by the demetallation of the complex. It is thus important to ensure the electrochemical inertness as well as the reversibility of the redox system. To determine the redox behavior of the copper complex of Hcb-te1pa, cyclic voltammetry experiments were performed in aqueous solution at pH values of 2.3 and 6.8. The experiments were carried out with a glassy-carbon working electrode in solutions containing 0.1 M NaClO4 as supporting electrolyte.

[3] = Potentiometric titrations: protonation constants of the ligands; settings: 25.0° C., 0.10M KNO3
Protocol: Equipment and work conditions. The potentiometric setup has been described in Roger, M. et al. Inorg. Chem. 2013, 52, 5246-5259. The titrant was a KOH solution prepared at ca. 0.1 M from a commercial ampoule of analytical grade, and its accurate concentration was obtained by application of the Gran's method upon titration of a standard HNO3 solution (Rossotti, F. J. and Rossotti, H. J. J. Chem. Educ. 1965, 42, 375-378). Ligand solutions were prepared at about 2.0×10^−3 M, and the Cu^2+ and Zn^2+ solutions at ca. 0.05 M from analytical grade nitrate salts and standardized by complexometric titrations with H4edta (ethylenediaminetetraacetic acid). Sample solutions for titration contained approximately 0.04 mmol of ligand in a volume of 30 mL where the ionic strength was kept at 0.10 M using KNO3 as background electrolyte. Metal cations were added at 0.9 equiv. of the ligand amount in complexation titrations. Batch titrations were prepared in a similar way but with each titration point corresponding to 1/10 of the amount of a conventional titration sample. Batch titration points were incubated in tightly closed vials at 25° C. until potential measurements attained complete stability, which happened within a week.
Measurements. All measurements were carried out at 25.0±0.1° C. under inert atmosphere. The electromotive force of the sample solutions was measured after calibration of the electrodes by titration of a standard HNO3 solution at 2.0×10^−3 M in the work conditions. The [H^+] of the solutions was determined by measurement of the electromotive force of the cell, E=E^o′+Q log [H^+]+Ej. The term pH is defined as −log [H^+]. E^o′ and Q were determined from the acid region of the calibration curves. Deviations from the Nernst law at very low pH (pH<2.5) were corrected with the VLpH software (Calibration software from the maker of Hyperquad available for free at http://www.hyperquad.co.uk/), which performs a [H^+] correction based on a very low pH calibration procedure. The liquid-junction potential, Ej, was otherwise found to be negligible for pH >2.5 under the experimental conditions used. […] Each titration consisted of 80-100 equilibrium points in the range of pH 2.5-11.5 (or 1.5-11.5 for Cu^2+ complexations), and at least two replicate titrations were performed for each particular system.
Calculations. […] The errors quoted are the standard deviations calculated by the fitting program from all the experimental data for each system.
The protonation constants of Hcb-te1pa were studied in aqueous solution at 25.0° C. The compound has five basic centers consisting of the four amines and the carboxylate function, from which only two could be accurately determined by potentiometric titrations (Table 1). […]

O=C(O)c1cccc(CN2CCCN3CCNCCCN(CC3)CC2)n1 [Hcb-te1pa, 6-(1,4,8,11-tetraazabicyclo[6.6.2]hexadecan-4-ylmethyl)picolinic acid]
a) metallation kinetics: time required for complete (>99%) Cu complexation ([1]; overview table): 3 min
time to quantitative (>99%) formation of copper(II) complex ([1]; pH=3, pseudo-first order, excess of 10 equivalents of metal cation): ≤ 10 min
time to completion (>99%) of copper(II) complex formation ([1]; pH=5, equimolar metal-to-ligand ratio): ≤ 3 min
time to completion (>99%) of copper(II) complex formation ([1]; physiological pH (7.4), equimolar metal-to-ligand ratio): within a few seconds
copper chelated immediately ([1]; remaining copper chelated within a few seconds): more than 90%
e) stability upon reduction, Cu(II) -> Cu (I): reduction potential [2]: −0.696 V
e) stability upon reduction, Cu(II) -> Cu (I): reversibility [2]: reversible
log βi^H, L + 2 H^+ ⇌ H2L [3]: 25.13(5) log units
log βi^H, L + 3 H^+ ⇌ H3L [3]: 27.56(5) log units
log βi^H, L + 4 H^+ ⇌ H4L [3]: <29.56 log units
log βi^H, L + H^+ ⇌ HL [3]: >15 log units
